Key:
Type in all cases: cell-based
Nrf2 = assay: ARE-pGL3 luciferase reporter assay for screening Nrf2 inhibitors in transformed HEK293 cells
Method: Oligomers including an ARE site (SEQ ID NOS: 1 to 10, Bioneer Corp., Ltd., Korea) were synthesized and treated with Kpnl and M1 ul restriction enzymes. The oligomers were inserted into a pGL3 luciferase plasmid (Promega, USA) treated with the Kpnl and M1ul restriction enzymes using a ligase (Promega, USA) to prepare ARE-pGL3 luciferase. […] Besides the plasmid, pcDNA3.1 (Invitrogen, USA) plasmid including a Neo gene was used together as a selection plasmid to select a transformed cell using G418 (neomycin) as a selectable factor.
HEK293 cells were purchased from the American Type Culture Collection (ATCC) and cultured in a Dulbecco's modified Eagle's medium (DMEM) supplemented with 10% fetal bovine serum (FBS), 100 µg/ml of streptomycin, and 100 units/ml of penicillin under 5% CO2 conditions at 37°C. A transformation by which the ARE-pGL3 luciferase was introduced into the HEK293cell was performed using Lipofectamine 2000™ (Invitrogen, Calsbad, CA, USA). Activity of luciferase was measured using a Luciferase Assay Kit (Promega, Medison, WI, USA). […] Based on the result, ARE-pGL3 luciferase plasmid including 4(1/2)xARE-2 having a sequence of SEQ ID NO: 10 was used as a plasmid for screening an Nrf2 inhibitor.
After the transformation performed according to Example 1-(2), transformed HEK293 cells that expressed both ARE-pGL3 luciferase and pcDNA3.1 were selected using a culture medium including G418 (600µg/ml) and used as a cell line for screening the Nrf2 inhibitor. 20,000 cells were inoculated into each well of a 96-well plate and cultured for 24 hours under the conditions described above in Example 1-(2). […] Transformed cells that stably expressed the ARE-pGL3 luciferase plasmid were selected, and 8,000 candidate substances, low molecular weight single compounds were used to screen the Nrf2 inhibitor. Each candidate substance was added to each well to a final concentration of 10 µM. The wells were incubated for 18 hours, and the luciferase activity was measured using a Victor 3 Luminometer (Perkin Elmer, USA).

HEK293 cells = assay: CCK-8 viability assay (absorbance at 450 nm) on the screening cells; details: CCK-8, absorbance at 450 nm, FIG. 2b
Method: In addition, in order to confirm that the inhibition of the luciferase activity is not caused by the death of a cell but by the Nrf2 inhibitor, absorbance was measured using a CCK-8 viability assay kit (Dojindo, Japan) and a spectrometer (Lab Systems, USA) at 450 nm.

HO-1 mRNA = assay: Semi-quantitative RT-PCR of HO-1 mRNA; details: inhibitor, then tBHQ after 2 hours; GAPDH control; FIG. 3a
Method: After 2 hours from the treatment of 3-[(4-biphenylyloxy)methyl]piperidine chloride, the selected Nrf2 inhibitor, RNA expression was assayed in order to measure the increase in the amount of heme oxygenase (HO)-1 mRNA by tBHQ treatment. mRNA was isolated from the cells treated with 3-[(4-biphenylyloxy)methyl]piperidine hydrochloride, using an RNA extraction kit (Qiagen, USA) and identified using a spectrometer (Amersham Biosciences, USA). cDNA was obtained from the mRNA using a reverse transcriptase (Promega, USA), and PCR was conducted using the cDNA as a template and primers having sequences SEQ ID NOS: 11 and 12 to measure the expression level of HO-1 mRNA. The PCR was performed with 25 cycles, each of which consisting of a denaturation at 94°C for 30 seconds, an annealing at 55°C for 30 seconds, and an extension at 72°C for 1 minute. The DNA obtained using the PCR was electrophoresed in a 1.5% agarose gel, stained using ethidium bromide, and observed under UV rays. […] It is believed that the 3-[(4-biphenylyloxy)methyl]piperidine hydrochloride that is selected as the Nrf2 inhibitor using the ARE-pGL3 luciferase plasmid in Example 1 acted on the ARE site to inhibit the activity of the Nrf2 transcription factor.

HO-1 protein = assay: Western blotting of HO-1 protein; details: FIG. 3b
Method: (§1) In order to identify whether the 3-[(4-biphenylyloxy)methyl]piperidine hydrochloride, the selected Nrf2 inhibitor, acted on the ARE site to inhibit the binding of the Nrf2 transcription factor, and thereby inhibiting the expression of antioxidant enzymes, protein expression was analyzed. The increase in the amount of HO-1 protein by the tBHQ treatment was assayed after treating cells with the 3-[(4-biphenylyloxy)methyl]piperidine hydrochloride followed by treatment with tBHQ with a 2-hour gap between the treatments. Cytoplasmic fractions were obtained from the cells treated as described above using a method commonly used in the art. The fractions were separated using a 10% gradient SDS-PAGE, and then transferred to a nitrocellulose membrane (BioRad, Hercules, CA, USA). The membrane was blocked with a 5% skim milk and screened with an anti-Nrf2 antibody (Abcam, USA) and a HO-1 antibody (Oncogene Research Products, USA). The result was visualized by a reaction with a horseradish peroxidase-conjugated anti-rat IgG antibody (Santa Cruz Biotechnology, Inc.) using a thermostat and then with an ECL system (GE, USA).

Nrf2 protein = assay: Western blotting of Nrf2 protein; details: FIG. 3b
Method: as §1

H1299 lung cancer cells [1] = assay: CCK-8 viability assay, alone and combined with Doxorubicin; details: 48 hours
Method: (§2) H1299 lung cancer cells, SKOV3 ovarian cancer cells, U87-MG brain cancer cells, and HT29 colorectal cancer cells were respectively inoculated into a 96-well plate including a Rosewell Park Memorial Institute medium 1640 (RPMI 1640) supplemented with 10% FBS, 100 µg/ml of streptomycin, and 100 unit/ml of penicillin. Each well was treated with 0.2, 2, 5, and 10 µM 3-[(4-biphenylyloxy)methyl]piperidine hydrochloride, and then treated with 0.15 µM Doxorubicin, an anti-cancer agent after 2 hours therefrom. The wells were cultured under 5% CO2 conditions at 37°C for 48 hours, and the killing effect of the cancer cells was assayed using a CCK-8 viability assay kit (Dojindo, Japan).

[2] = test system: HT29 colorectal cancer cells; assay: as above; details: 48 hours
Method: as §2

[3] = test system: SKOV3 ovarian cancer cells; assay: as above; details: 48 hours
Method: as §2

[4] = test system: U87-MG brain cancer cells; assay: as above; details: 48 hours
Method: as §2

H1299 lung cancer cells [5] = assay: Clonogenic assay with radiation (methylene blue staining); details: 1, 5, and 10 µM with 2, 4, and 6 Gy radiation, 7 days
Method: (§3) H1299 lung cancer cells, U87-MG brain cancer cells, or HT29 colorectal cancer cells were respectively inoculated into a 6 cm plate including a RPMI 1640 supplemented with 10% FBS, 100 µg/ml of streptomycin, and 100 unit/ml of penicillin. The plate was treated with the selected 1, 5, and 10 µM 3-[(4-biphenylyloxy)methyl]piperidine hydrochloride, the Nrf2 inhibitor, exposed to 2, 4, and 6 Gy -radiation, and cultured under 5% CO2 conditions at 37°C for 7 days. The cultured cells were washed with a phosphate buffered saline (PBS) and stained with a 1% methylene blue in 100% methanol. Then, the number of alive cells that formed colonies was calculated three times.

[6] = test system: HT29 colorectal cancer cells; assay: as above; details: 1, 5, and 10 µM with 2, 4, and 6 Gy radiation, 7 days
Method: as §3

[7] = test system: U87-MG brain cancer cells; assay: as above; details: 1, 5, and 10 µM with 2, 4, and 6 Gy radiation, 7 days
Method: as §3

[8] = test system: MB231 breast cancer cells; assay: FACS of propidium iodide stained cells after radiation; details: 1 µM with 5 Gy radiation, 48 hours; compared to 5Gy radiation therapy
Method: (§4) In order to measure whether a treatment of MB231 breast cancer cells and SKOV3 ovarian cancer cells with a combination of 3-[(4-biphenylyloxy)methyl]piperidine chloride, the selected Nrf2 inhibitor, and radiation therapy increase or synergistically increase the killing of cancer cells by apoptosis, the cancer cells were treated with 1 µM 3-[(4-biphenylyloxy)methyl]piperidine hydrochloride, exposed to 5 Gy radiation, and cultured under 5% CO2 conditions at 37°C for 48 hours. The cultured cells were collected and stained with propidium iodide, and cell cycles were analyzed using a fluorescence activated cell sorting (FACS).

[9] = test system: SKOV3 ovarian cancer cells; assay: as above; details: 1 µM with 5 Gy radiation, 48 hours; compared to 5Gy radiation therapy
Method: as §4

[10] = inhibitor then tBHQ with a 2-hour gap, cytoplasmic fractions, concentration-dependent
[11] = 0.2, 2, 5, and 10 µM, then 0.15 µM Doxorubicin after 2 hours, compared to Doxorubicin alone
[12] = compound alone, 0.2, 2, 5, and 10 µM

Cl.c1ccc(-c2ccc(OCC3CCCNC3)cc2)cc1 (stereo not shown) [3-[(4-biphenylyloxy)methyl]piperidine hydrochloride]
activity of the luciferase (Nrf2; concentration dependence, FIG. 2a): inhibited the activity of the luciferase in a concentration-dependent manner
activity of the luciferase (Nrf2; screening, final concentration of 10 µM, incubated for 18 hours): inhibits the activity of the luciferase
cell toxicity (HEK293 cells): does not have cell toxicity
expression of HO-1 mRNA (HO-1 mRNA): inhibited in a dose-dependent manner
amount of HO-1 protein (HO-1 protein; [10]): reduced
amount of Nrf2 protein (Nrf2 protein; [10]): reduced
killing effect of a combination with Doxorubicin (H1299 lung cancer cells [1]; [11]): significantly increased in a concentration-dependent manner
effect on the viability (H1299 lung cancer cells [1]; [12]): negligible
killing effect of a combination with Doxorubicin [2, 11]: significantly increased in a concentration-dependent manner
effect on the viability [2, 12]: negligible
killing effect of a combination with Doxorubicin [3, 11]: significantly increased in a concentration-dependent manner
effect on the viability [3, 12]: negligible
killing effect of a combination with Doxorubicin [4, 11]: significantly increased in a concentration-dependent manner
effect on the viability [4, 12]: negligible
sensitivity of cells to radiation (H1299 lung cancer cells [5]): increased or synergistically increased the sensitivity of cells to radiation
sensitivity of cells to radiation [6]: increased or synergistically increased the sensitivity of cells to radiation
sensitivity of cells to radiation [7]: increased or synergistically increased the sensitivity of cells to radiation
killing effect of the combination with radiation [8]: 4.3 times
killing effect of the combination with radiation [9]: twice

CC(C)(C)c1cc(O)ccc1O [tBHQ, tertiary butylhydroquinone, reference compound]
activity of the luciferase (Nrf2; tBHQ added to the culture, activates the ARE): increased twice
amount of HO-1 protein (HO-1 protein; treatment with tBHQ): increased
amount of Nrf2 protein (Nrf2 protein; treatment with tBHQ): increased

From EP2488179B1, “NRF2 INHIBITORS AND USE THEREOF” (priority 2009, dated 2011)
